The test concerns the target T1, TRPA1 (Homo sapiens, UniProt O75762).
T1 construct: Human sensory neurons were obtained from pluripotent stem cells and cultured in culture plates; endogenous in cells; host or cells: human pluripotent-stem-cell-derived sensory neurons co-cultured with human keratinocytes
Put plainly: Protection against activation of TRPA1 following AITC stimulation, Fluo-4 AM calcium fluorescence in keratinocyte-sensory neuron co-culture. Type of test: cell-based. Particulars: for Activation of TRPA1 following stimulation with AITC, fluorescence, Mean +/- sem: human keratinocyte-neuron co-culture, 1 mM AITC, 6 replicates, 3 minutes. The protocol:
The in vitro example described here relates to the reduction in the activation of the receptor TRPA1, involved in the induction of sensations of itching/irritation/scratching/pain of the skin following certain stimulations.
Protection Against Activation of TRPA1 (Neuron Experts Service)
Human sensory neurons were obtained from pluripotent stem cells and cultured in culture plates. Human keratinocytes were grown and then seeded above the neurons.
After 19 days of co-culture at 37° C. in a humid atmosphere under 5% CO2, the test products or the positive reference, HC030031 (C18H21N5O3), at 10 μM, and also the fluorescent probe Fluo-4 AM, were added to the co-culture. The Fluo-4 AM probe makes it possible to follow the rapid kinetics of the variation of the intracellular calcium concentration by measuring in real time its fluorescence intensity, and the calcium flux is associated with activation of TRPA1.
After 30 minutes of incubation, the culture medium was removed and the cultures were washed and then reincubated with the test products. Immediately afterwards, they were placed under an inverted microscope and observed in epifluorescence. […] Five seconds after starting the recording, the neurons were stimulated with 10^-3 M AITC (allyl isothiocyanate).
The experiments were carried out in 6 replicates. The fluorescence was analyzed for 3 minutes.
The fluorescence values were expressed as means+/−sem [standard error of the mean=standard deviation/root (number of values)].
For each condition, the percentages of stimulation and of protection were calculated as follows: % stimulation=100×[mean(condition)]/[mean(cells stimulated with AITC)] % protection=100×[mean(condition)−mean(cells stimulated with AITC)]/[mean(unstressed cells)−mean(cells stimulated with AITC)].
Statistical analysis was performed by a one-way ANOVA test with a significance threshold set at 5%, by comparing the conditions in pairs. A difference between the efficacy of two products was considered: • significant if p<0.05; • “at the limit of significance” if 0.05≤p<0.1; • and not significant if p>0.1.

[1] abbreviates: HC030031 10 μM, coriander seed oil 0.001%.

The structures appear in SMILES notation. Marks after values point to notes of the source that are not given here.

T1 sequence (O75762 whole entry): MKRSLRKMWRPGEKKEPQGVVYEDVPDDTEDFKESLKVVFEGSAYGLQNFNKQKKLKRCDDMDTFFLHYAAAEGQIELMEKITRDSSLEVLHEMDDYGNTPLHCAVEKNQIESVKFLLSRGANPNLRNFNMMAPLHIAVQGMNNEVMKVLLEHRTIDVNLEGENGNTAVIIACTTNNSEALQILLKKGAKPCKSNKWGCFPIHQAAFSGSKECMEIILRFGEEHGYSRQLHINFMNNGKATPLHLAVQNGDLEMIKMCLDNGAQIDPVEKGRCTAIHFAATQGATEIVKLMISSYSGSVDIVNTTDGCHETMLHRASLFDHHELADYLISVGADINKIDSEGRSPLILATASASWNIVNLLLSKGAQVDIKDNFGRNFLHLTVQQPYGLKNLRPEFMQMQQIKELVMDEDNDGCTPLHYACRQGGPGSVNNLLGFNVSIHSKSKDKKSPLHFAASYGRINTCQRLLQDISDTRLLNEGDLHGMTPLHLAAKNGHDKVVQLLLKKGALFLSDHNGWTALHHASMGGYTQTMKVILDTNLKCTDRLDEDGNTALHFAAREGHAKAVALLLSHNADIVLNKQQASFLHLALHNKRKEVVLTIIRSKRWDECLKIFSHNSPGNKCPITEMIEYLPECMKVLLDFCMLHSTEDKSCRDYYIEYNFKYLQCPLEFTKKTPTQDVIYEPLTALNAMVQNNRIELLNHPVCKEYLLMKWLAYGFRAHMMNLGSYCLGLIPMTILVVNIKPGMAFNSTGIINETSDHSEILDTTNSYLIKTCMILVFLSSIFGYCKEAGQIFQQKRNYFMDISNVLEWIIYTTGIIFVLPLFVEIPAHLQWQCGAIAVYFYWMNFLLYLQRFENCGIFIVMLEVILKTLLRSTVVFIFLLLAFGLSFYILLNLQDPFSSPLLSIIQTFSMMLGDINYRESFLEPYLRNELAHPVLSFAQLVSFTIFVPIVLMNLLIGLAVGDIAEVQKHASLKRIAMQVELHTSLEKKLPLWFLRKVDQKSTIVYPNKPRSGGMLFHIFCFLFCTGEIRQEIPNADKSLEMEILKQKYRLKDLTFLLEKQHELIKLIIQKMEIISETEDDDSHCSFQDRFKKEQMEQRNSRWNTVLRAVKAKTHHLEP

For the compound `C=CCN=C=S` [AITC, allyl isothiocyanate], the “Activation of TRPA1 following stimulation with AITC, fluorescence, Mean +/- sem” value under setting [1] is given as 34035 +/− 1910*** AU. The “increase in the activation of TRPA1 vs non-stimulated cells” value (keratinocyte-neuron co-culture, AITC stimulation) stood at 585%.

For `CC(C)c1ccc(NC(=O)Cn2cnc3c2c(=O)n(C)c(=O)n3C)cc1` [HC030031], the “reduction of the activation of TRPA1” value (AITC-stimulated keratinocyte-neuron co-culture, coriander seed oil 0.001%) worked out at 88%. Moreover, the “% protection” value (against 1 mM AITC stimulation, HC030031 10 μM, coriander seed oil 0.001%) amounted to 88%. Further, under setting [1], the “Activation of TRPA1 following stimulation with AITC, fluorescence, Mean +/- sem” value was 8537 +/− 553*** AU. Besides, the “% stimulation” value (relative to cells stimulated with 1 mM AITC, HC030031 10 μM, coriander seed oil 0.001%) is reported as 25%.

The values are drawn from patent US11806377B2, “Oral use of coriander seed oil for a soothing effect on reactive skin” (Societe d'Exploitation de Produits Pour les Industries …, priority 2018, dated 2023).
